Data from US20050208058A1, “Compositions and methods for modulating cell division” (priority 2003, published 2005).
d = 2'-deoxy (DNA)

What was measured:
Format in all cases: cell-based, human
RPE1 cells = assay: FACS of nocodazole shift with kinase inhibitors and siGCP3 (p38 dependence); conditions: FIG. 7
Description: (§1) For flow cytometry (i.e., fluorescence-activated cell sorter or FACS) experiments, siRNAs were delivered to cells as described above, and were incubated for 50-70 hours. To synchronize cells, nocodazole was added to the cells to a concentration of 5 μg/mL for 12 hours. Cells were stained with propidium iodide and analyzed by flow cytometry (FACSCAN; Becton Dickinson) using FLOJO® software (Tree Star, Inc., Ashland, Oreg.).
The following experiment was performed to test if p38, an upstream component of p53 signaling, is required for the centrosomal cell cycle arrest phenotype described herein. The following inhibitors were added to RPE1 cells 1 hour prior to siRNA treatment at the indicated concentrations: SB203580 (p38 inhibitor) 40 μM, SB202190 (p38 inhibitor) 10 μM, and PD98059 (MAPK inhibitor) 50 μM. All inhibitors were obtained from Calbiochem and dissolved in DMSO. siRNA treatment and FACS analysis was performed as described in Example 2.

RPE cells [1] = assay: Flow cytometry (FACS) of nocodazole-induced shift from G1 to G2/M peak after siRNA treatment; conditions: siRNA 50-70 hours, nocodazole 5 μg/mL 12 hours; FIG. 3A, FIG. 8
Description: as §1
In another approach to evaluating the effect requirement for centrosomal gene products, fluorescence assisted cell sorting (flow cytometry or FACS) analysis was performed as described in Gromley et al., J. Cell Biol., 161:535-545 (2003). Briefly, cells were treated with indicated siRNA for at least 50-70 hours, unless otherwise indicated. Cells were synchronized by adding nocodazole to 5 μg/mL for 12 hours prior to cell collection. Cells were collected, fixed in methanol, stained with propidium iodide, and analyzed by flow cytometry (FACSCAN®;Becton Dickinson) using FLOJO® software (Tree Star, Inc.).
FIG. 3A is a graph showing the effects of depleting the indicated centrosomal gene products by siRNA treatment. The left side of the graph depicts the FACS results for treated cells before the addition of nocodazole (-noc). The major fluorescence peak in (-noc) cells is the G1 peak, (i.e., lower DNA fluorescence). The right side of the graph depicts the results for cells after nocodazole treatment (+noc). […] This may be due to inefficient silencing caused by the siRNAs used.
The ability of a number of centrosomal genes to inhibit cell cycling of RPE1 cells was tested by treating cells with siRNAs and performing FACS analysis as described in Example 2.

RPE cells [2] = assay: BrDU incorporation after siRNA treatment and nocodazole synchronization; conditions: relative to control cells (siRNA to lamin), after nocodazole release; FIG. 2A
Description: To further study the effects of silencing centrosomal genes, the following cell cycle experiments were performed using RPE cells. In immunofluorescence experiments, cells were delivered by OLIGOFECTAMINE in a media solution containing between 1-100 nanomolar concentration of siRNAs. After 4 hours of incubation with lipofectamine, cells were washed, and cell cycle progression was assayed by (i) treating cells with 5-Bromo-2′-deoxyuridine (BrDU from Sigma, St Louis, Mo.) for 24 hours and staining for BrDU or (ii) staining cells with antibody to Ki-67 (BD Biosciences) according to manufacturer's instructions. BrDU treatment and staining were performed as follows: after 50-70 hours incubation with siRNA, BrDU was added to cells at a final concentration of 5 μg/ml. Cells were fixed in −20° C. methanol and then treated with 2N HCL at 22° C. for 30 minutes, incubated with 1:500 mouse anti-BrdU antibody (Becton Dickinson, Palo Alto, Calif.), and labeled with 1:1,000 goat FITC-mouse antibody (Molecular Probes, Inc.). Cells were also treated with 4′,6-diamidino-2-phenylindole (DAPI) (Molecular Probes) according to the manufacturer's instructions. Cells were prepared, imaged, and the resulting images were deconvolved as described in Example 1.
Upon release from nocodazole treatment, proliferating cells typically resume cell cycle progression. Chromosomal DNA in the cells was imaged using DAPI (faint ghost-like staining) and/or BrDU (brighter staining). Although DAPI can be used to visualize DNA at any stage of the cell cycle, BrDU is only incorporated into newly synthesized DNA only during S-phase. Thus, BrDU incorporation can be used as a marker of cells that progress through at least one S-phase of the cell cycle. Control cells in this experiment were treated with siRNA to lamin.

RPE cells [3] = assay: CFDA-SE labeling cell division assay; conditions: during the 72 hours following siRNA treatment; FIG. 4
Excerpt: RPE cells were transfected with siRNA directed to pericentrin A/B or lamin (control) as described in Example 2. Immediately prior to siRNA transfection cells were labeled with a succinimidyl ester of carboxyfluorescein diacetate (CFDA-SE from Molecular Probes, Eugene, Oreg.) according to manufacturers instructions. CFDA-SE is a fluorescent marker that spontaneously and irreversibly couples to free amines on intracellular and cell-surface proteins. When a cells divides, CFDA-SE labeling is inherited equally by daughter cells, which are therefore half as fluorescent as the parent cell. Cells were prepared for and analyzed by fluorescence microscopy as described in Example 1.

cdc14A = assay: Anti-cdc14A immunofluorescence intensity in siRNA-treated cells; conditions: 25 cells; FIG. 1C
Description: To test the ability of siRNAs to silence centrosomal gene products, cells were treated with siRNAs for 24 hours. Cells were diploid, telomerase-immortalized human retinal pigment epithelial (RPE1) cells (hTERT-RPE1s from Clontech, Palo Alto, Calif.) (see Morales et al., Nat Genet, 21:115-118, 1999). siRNAs directed to δ-tubulin (SEQ ID NO:2), γ-tubulin (SEQ ID NO:4), GCP2 (SEQ ID NO:5), GCP3(SEQ ID NO:6), cNAP1 (SEQ ID NO:8), PCM1 (SEQ ID NO:9), ninein (SEQ ID NO:21), NEK2a (SEQ ID NO:10), centrin2 (SEQ ID NO:12), CDC14A (SEQ ID NO:13), gapcena (SEQ ID NO:15), nemo (SEQ ID NO:16), pericentrin (SEQ ID NO:23), lamin A/C (CUGGACUUCCAGAAGAACA, SEQ ID NO: 24) zyxin (UGUGGCUGUCAACGAACUC, SEQ ID NO:25), and p53 (GGACAAGGGUUGGGCUGGG, SEQ ID NO:26) were made as complementary single stranded 19-mer siRNAs with 3′ dTdT overhangs (Dharmacon Inc., Lafayette, Colo.), deprotected, annealed and delivered into cells using OLIGOFECTAMINE® from Invitrogen (Carlsbad, Calif.). Nucleotides were delivered in media containing up to 100 nanomolar concentrations of siRNAs. […]
FIG. 1C is a histogram quantifying anti-cdc14A immunofluorescence observed in 25 cells treated with (i) siRNA to CDC14 (siCDC14) or (ii) control siLamin.

δ-tubulin = assay: Immunofluorescence of centrosomal δ-tubulin after siRNA treatment; conditions: vs lamin control; FIG. 1D
Description: To test the ability of siRNAs to silence centrosomal gene products, cells were treated with siRNAs for 24 hours. Cells were diploid, telomerase-immortalized human retinal pigment epithelial (RPE1) cells (hTERT-RPE1s from Clontech, Palo Alto, Calif.) (see Morales et al., Nat Genet, 21:115-118, 1999). siRNAs directed to δ-tubulin (SEQ ID NO:2), γ-tubulin (SEQ ID NO:4), GCP2 (SEQ ID NO:5), GCP3(SEQ ID NO:6), cNAP1 (SEQ ID NO:8), PCM1 (SEQ ID NO:9), ninein (SEQ ID NO:21), NEK2a (SEQ ID NO:10), centrin2 (SEQ ID NO:12), CDC14A (SEQ ID NO:13), gapcena (SEQ ID NO:15), nemo (SEQ ID NO:16), pericentrin (SEQ ID NO:23), lamin A/C (CUGGACUUCCAGAAGAACA, SEQ ID NO: 24) zyxin (UGUGGCUGUCAACGAACUC, SEQ ID NO:25), and p53 (GGACAAGGGUUGGGCUGGG, SEQ ID NO:26) were made as complementary single stranded 19-mer siRNAs with 3′ dTdT overhangs (Dharmacon Inc., Lafayette, Colo.), deprotected, annealed and delivered into cells using OLIGOFECTAMINE® from Invitrogen (Carlsbad, Calif.). Nucleotides were delivered in media containing up to 100 nanomolar concentrations of siRNAs.
Commercial antibodies to the following proteins were used in this study: lamin A/C (Cell Signaling Technology, Beverly, Mass.), δ-, ε-, or γ-tubulin (Sigma-Aldrich, St. Louis, Mo.), zyxin (Santa Cruz Biotechnology, Santa Cruz, Calif.), Nek2A (Zymed, South San Francisco, Calif.), p53 (Calbiochem, San Diego, Calif.). […]

Molecule: COc1cccc(-c2cc(=O)c3ccccc3o2)c1N [map kinase inhibitor, PD98059]
- effect of inhibitor alone on nocodazole-induced shift from G1 to G2/M peak (RPE1 cells; SB203580 40 μM, SB202190 10 μM, PD98059 50 μM): did not inhibit the nocodazole-induced shift
- effect of inhibitor on siGCP3-induced cell cycle arrest (RPE1 cells; inhibitor added 1 hour prior to siGCP3, SB203580 40 μM, SB202190 10 μM, PD98059 50 μM): did not affect siGCP3's ability to cause cell cycle arrest

Molecule: AAGAGAAGCAGAUGCUGCA (siRNA; RNA, 3' dTdT, backbone not given here) [siGCP3, siRNA directed to GCP3]
- inhibition of nocodazole-induced shift from G1 peak to G2/M peak (RPE cells [1]): prevented nocodazole-induced shift
- effect of siRNA on nocodazole-induced shift from G1 to G2/M peak (RPE1 cells; siRNA alone): inhibited this shift

Molecule: ACUUCGCCUGGUCCAACUU (siRNA; RNA, 3' dTdT, backbone not given here) [GCP-5, siRNA directed to GCP5]
- inhibition of nocodazole-induced shift from G1 peak to G2/M peak (RPE cells [1]): prevented nocodazole-induced shift

Molecule: AGGGAACCAAGGAAAGGCA (siRNA; RNA, 3' dTdT, backbone not given here) [NEK, siRNA directed to NEK2]
- incorporation of BrDU into chromosomal material (RPE cells [2]): less pronounced
- inhibition of nocodazole-induced shift from G1 peak to G2/M peak (RPE cells [1]): did not cause a pronounced inhibition of the shift

Molecule: CUGGACUUCCAGAAGAACA (siRNA; RNA, 3' dTdT, backbone not given here) [lamin, control siRNA directed to lamin A/C, reference compound]
- cells that never divided (RPE cells [3]): ~7%

Molecule: GAGCAAAAGCAGGAGAUCC (siRNA; RNA, 3' dTdT, backbone not given here) [centrin, siRNA directed to centrin2]
- incorporation of BrDU into chromosomal material (RPE cells [2]): clearly inhibited incorporation of BrDU

Molecule: GCACAGUAAAUACCCACUA (siRNA; RNA, 3' dTdT, backbone not given here) [siCDC14, siRNA directed to CDC14A]
- cells displaying lower anti-cdc14A fluorescence intensity than the lowest control (siLamin treated) cell (cdc14A): 68%

Molecule: GCAGCUGAGCUGAAGGAGA (siRNA; RNA, 3' dTdT, backbone not given here) [pericentrin A/B, siRNA directed to both pericentrin A and pericentrin B]
- cells that never divided (RPE cells [3]): 40%

Molecule: GGUUCUGGAAACAACUGGG (siRNA; RNA, 3' dTdT, backbone not given here) [siδ-tubulin, siRNA directed to δ-tubulin]
- centrosomal δ-tubulin staining (δ-tubulin): reduced the number and/or fluorescence intensity of centrosomal staining

Molecule: GUCCCCCAAACAGAGAAAC (siRNA; RNA, 3' dTdT, backbone not given here) [PCM-1, siRNA directed to PCM1]
- inhibition of nocodazole-induced shift from G1 peak to G2/M peak (RPE cells [1]): prevented nocodazole-induced shift

Molecule: UAUGAGCAUUGAGGCAGAG (siRNA; RNA, 3' dTdT, backbone not given here) [ninein]
- inhibition of nocodazole-induced shift from G1 peak to G2/M peak (RPE cells [1]): did not cause a pronounced inhibition of the shift

Molecule: UCUAUCCGAAAGCCCAGUC (siRNA; RNA, 3' dTdT, backbone not given here) [CNAP, siRNA directed to cNAP1]
- incorporation of BrDU into chromosomal material (RPE cells [2]): clearly inhibited incorporation of BrDU
- inhibition of nocodazole-induced shift from G1 peak to G2/M peak (RPE cells [1]): prevented nocodazole-induced shift
